Results on five molecules are retold here after PMC7143549, “Anticancer Activities of Meroterpenoids Isolated from the Brown Alga Cystoseira usneoides against the Human Colon Cancer Cells HT-29” (Foods, 2020).

≈ marks a conversion by molar mass, not a printed value. Where two headings read alike, the source gives them in different places.

In experiment [1] the test system is HT-29 human colon carcinoma cells. In words: Sulforhodamine B (SRB) cell viability assay, HT-29. Conditions: for IC50: Homo sapiens, HT-29, 72 h; for Selectivity Index (SI): IC50 for normal cells CCD 841 CoN / IC50 for cancer cells HT-29. The format is cell-based. Here is the method:
(§1) Cell viability was quantified using the Sulforhodamine B assay described by Skehan et al.. Cells were plated with a density of 5 × 10^3 (HT-29) and 1 × 10^4 (CCD 841 CoN) cells/well and allowed to attach at 37 °C in an atmosphere with 5% CO2. After 24 h, the AMTs dissolved in DMSO were added to the cells (final concentrations of 10, 20, 30, and 50 µg/mL and less than 0.05% of DMSO) and the plates were incubated for 72 h. Then, the cells were fixed by adding 50 μL of TCA (50%) to each well and the plates were maintained for 1 h at 4 °C. The plates were washed five times with deionized water, air-dried, and stained for 30 min at room temperature with 100 μL of 0.4% (w/v) SRB prepared in 1% (v/v) acetic acid. The plates were rinsed quickly five times with 1% acetic acid to remove unbound dye, followed by air-drying. The bound dye was solubilized in 2 mM Tris base (100 μL/well) for 5 min. Optical densities were read on a microplate reader (Spectrophotometer LabsystemsMultiskan EX, λ 492 nm). Three independent assays were conducted, each one in duplicate. A standard curve was constructed for each experiment and used for converting the measured optical density values into numbers of viable cells/well. The inhibition rate was used to evaluate the cell viability and its algorithm was the following formula: ((ODcontrol − ODtreatment)/ODcontrol) × 100; OD, optical density. The OD492 for control cells was taken as 100% viability. The half maximal inhibitory concentration (IC50) was calculated. The selectivity index (SI) of each compound was calculated as IC50 of the compound against the CCD 841 CoN normal cell line/IC50 of the same compound against the HT-29 cancer cell line.

Experiment [2] has as its system normal human colonic epithelial cells CCD 841 CoN. Kind of experiment: Sulforhodamine B (SRB) cell viability assay, CCD 841 CoN. It is filed as cell-based. Conditions: normal colon cells, 72 h of treatment, mean ± SE of three experiments, read-out: IC50 CCD841 CoN. Here is the method:
as §1

The subject of experiment [3] is HT-29 colon cancer cells. Kind of experiment: Annexin V-FITC/PI flow cytometry apoptosis induction assay. Conditions: 24 h; for necrosis (dead cells): 30 μg/mL. It is filed as cell-based, human. The protocol:
Quantitative assessment of apoptosis was performed by flow cytometry using an Annexin V-FITC Apoptosis Detection Kit. Briefly, 1 × 10^6 HT-29 cells were seeded per well in six-well plates and incubated for 24 h, followed by the addition of the AMTs dissolved in DMSO (final concentrations of 10, 20, and 30 µg/mL for compounds 1, 2, 5, 6, 7, and 8, and 30, 60, and 90 µg/mL for compounds 3 and 4, and less than 0.05% DMSO) and incubation for 24 h. Curcumin (final concentrations of 50 and 75 μM) was used as positive control. The cells were then washed, harvested with trypsin, and centrifuged at 1500 rpm (5 min, 25 °C). The pellet was resuspended in 195 µL of 1 × Annexin buffer and then stained with 5 μL of Annexin V-FITC and 10 μL of PI for 10 min at room temperature, in the dark. To this mixture 200 μL of 1 × Annexin buffer was added before analysis using a Cytomics FC500 flow cytometer (Beckman Coulter, Indianapolis, IN, USA). Following a gating strategy, flow cytometry plots of size (FS) and complexity (SS) of the HT-29 cells were previously established for the elaboration of a measurement protocol. The normal healthy cells, early apoptosis, late apoptosis, and necrotic populations were represented by annexin V-negative/PI-negative population, annexin V-positive/PI-negative, annexin V-positive/PI-positive and annexin-negative/PI-positive cells, respectively. A total of 10,000 cellular events in each sample were analyzed using DML program.
(In flow cytometry, cells or beads pass a laser one at a time.)

The subject of experiment [4] is HT-29 colon cancer cells. In words: Cell cycle analysis by flow cytometry (PI). It is filed as cell-based, human. Particulars: 24 h; 30 μg/mL of 1, 2, 5, 6, 7, 8 and 90 μg/mL of 3 and 4 (Figure 4B). Here is the method:
HT-29 cells (1 × 10^6 cells/well) were seeded in six-well plates and incubated for 24 h, followed by treatment with AMTs dissolved in DMSO (final concentrations of 10, 20, and 30 µg/mL for compounds 1, 2, 5, 6, 7, and 8, and 30, 60, and 90 µg/mL for compounds 3 and 4, and always below 0.05% DMSO) and 24 h of additional incubation. Colchicine (final concentration of 0.2 μg/mL) was used as positive control. The cells were then washed, harvested with trypsin, and centrifuged at 1500 rpm (5 min, 25 °C). The resulting pellet was fixed with ice-cold 70% ethanol (1 mL/10^6 cells) and the samples were stored at −4°C overnight. After fixation, the cells were washed with PBS, stained with PBS containing 5 mg/mL of RNase A, and incubated for 48 h at 4 °C. Subsequently, 50 μL of 0.1 mg/mL of IP was added and incubated for 1 h at 4 °C. The relative DNA content per cell was analyzed using a Cytomics FC500 flow cytometer (Beckman Coulter, Indianapolis, IN, USA). The data acquisition was performed with the DML program and the analysis of the acquired data with the CXP Software (Beckman Coulter, Indianapolis, IN, USA).

For experiment [5], the system named is HT-29 cells. Kind of experiment: Wound migration assay. The format is cell-based, human. Conditions: 24 h, wound-healing; for inhibition at 10 µg/mL: Homo sapiens, HT-29, 10 μg/mL, read-out: inhibition of cell migration. Here is the method: For cell migration assay, HT-29 cells were seeded in six-well culture plates and allowed to grow to 80%–90% confluence for the experiment. After aspirating the medium, similar sized wounds were performed in the monolayer cells using a sterile micropipette tip. Wounded monolayer cells were washed three times with PBS to remove cell debris and then replaced with complete McCoy’s medium. HT-29 cells were treated with the AMTs (10 µg/mL for compounds 1, 2, 5, 6, 7, and 8, and 30 µg/mL for compounds 3 and 4) and incubated for 24h. For the image analysis of the effect of each treatment on cell migration, the wounded area was photographed immediately after scratching and after 24 h. The level of cell migration was determined using NIH Image software (Image J 1.44g, Wayne Rasband, USA) and then expressed as a percentage of wound closure area using the equation: Migration rate (%) = [(wound area at 0 h − wound area at 24 h)/wound area at 0 h] × 100%.

Another experiment has as its system p-ERK1/2 in HT-29 cells. Kind of experiment: Western blot of phosphorylated ERK1/2. The format is cell-based, human. Particulars: 24 h; 10 and 20 μg/mL. Here is the method:
(§2) Cells were cultured to 80% confluence at 37 °C. After 24 h of treatment with the compounds (10 and 20 µg/mL for compounds 1, 2, 5, 6, 7, and 8, and 30 and 60 µg/mL for compounds 3 and 4), HT-29 cells were rinsed twice with ice-cold PBS, and then lysed immediately in lysis buffer (250 mM NaCl, 50 mM Tris (pH 7.5), 0.5 mM EDTA, 5 mM EGTA, 8 mM MgCl2, 1 mM PMSF, 0.01 mg/mL pepstatin A, 0.01 mg/mL leupeptin, 0.01 mg/mL aprotinin, 1% Triton X-100). After centrifugation at 12,000 g for 3 min at 4°C to separate the cellular debris, the supernatant was collected and stored at −80°C until use. The protein concentrations were determined using Bio-Rad Protein Assay (BioRad, Richmond, CA, USA), according to the manufacturer’s instructions.
(§3) Equal protein content (50 μg) samples of cell lysates were separated on 10% SDS–polyacrylamide gel and transferred to polyvinylidene difluoride membranes (Hybond-P, Amershan Biosciences, Little Chalfont, UK). The membranes were blocked with 5% (w/v) non-fat dry milk in Tris-buffered saline containing 0.1% Tween-20 buffer (pH 7.4) (TBST) for 1 h at room temperature and incubated with agitation with specific antibodies: anti-pERK1/2 (Cell Signaling; 1:1000), anti-pJNK (Cell Signaling; 1:1000), anti-pAKT (Cell Signaling; 1:1000), anti-β-actin (Sigma-Aldrich; 1:500). Membranes were incubated overnight at 4°C with gentle shaking. The secondary antibody was a peroxidase-conjugated goat anti-mouse or -rabbit antibody (1:10,000; DakoCytomation, Carpinteria, CA, USA). After washing the membrane three times in TBST buffer (10 min), the signals were detected using an enhanced chemiluminescence light-detecting kit (Super-Signal West Pico Chemiluminescent Substrate, Pierce, IL, USA), according to the manufacturer’s instructions and exposed to an X-ray film (GE Healthcare Ltd., Amersham, UK). The protein band densities were analyzed and quantified with a Scientific Imaging Systems (Biophotonics ImageJ Analysis Software, National Institute of Mental Health, Bethesda, MD, USA). β-actin was used to confirm the equal loading and transfer of proteins.

The next experiment relates to p-AKT in HT-29 cells. Kind of experiment: Western blot of phosphorylated AKT. The format is cell-based, human. Particulars: 24 h; 10 and 20 μg/mL for 1, 2, 5, 6, 7, 8; 30 and 60 μg/mL for 3 and 4. Here is the method: as §2, §3
A further experiment has as its system p-JNK in HT-29 cells. In words: Western blot of phosphorylated JNK. It is filed as cell-based, human. Conditions: 24 h; 10 and 20 μg/mL for 1, 2, 5, 6, 7, 8; 30 and 60 μg/mL for 3 and 4. Here is the method:
as §2, §3

For experiment [6], the system named is HT-29 cells. Particulars: cited from earlier work.
The mark [7] stands for this setting: colon cancer cells, 72 h of treatment, SRB, mean ± SE of three experiments.

`COc1c(C)cc(O)cc1C/C=C(\C)CC(=O)/C=C(\C)CCCC(C)C(=O)/C=C/C(C)(C)O` (centres unmarked) [Compound 6, amentadione-1′-methyl ether]: the IC50 in experiment [1] (setting [7]) turned out to be 10.7 ± 0.27 µg/mL (≈ 23.5 µM); in [2], 48.4 ± 3.84 µg/mL (≈ 106 µM). Besides, in experiment [1], the “Selectivity Index (SI)” value was 4.51. Moreover, in the experiment with HT-29 colon cancer cells [3], the “necrosis (dead cells)” value is 59.55%. The “accumulation of cells at the G2/M phase (cell cycle arrest, words)” value (“accumulation of cells at the G2/M phase” below) in the experiment with HT-29 colon cancer cells [4] was “not significant”. For the same molecule, the inhibition at 10 µg/mL in the experiment on HT-29 cells [5] is 45.3%. Besides, in the experiment with p-ERK1/2 in HT-29 cells, the “p-ERK1/2 level vs control” value is recorded as “significantly reduced”. In addition, the “expression of p-AKT protein vs control” value in the experiment on p-AKT in HT-29 cells is reported as “no significant reduction”.

Regarding `COc1c(C)cc(O)cc1C/C=C(\C)CC(=O)/C=C(/C)CCCC(C)=O` [Compound 4, cystomexicone A], the IC50 in experiment [1] (setting [7]) is 34.3 µg/mL (≈ 95.7 µM); in [2], 61.9 ± 2.37 µg/mL (≈ 173 µM). In addition, in [1], the “Selectivity Index (SI)” value stood at 1.68. The “IC50 HT-29” value in experiment [1] (setting [7]) worked out at 36.86 ± 2.86 µg/mL (≈ 103 µM). For the same molecule, in the experiment on HT-29 colon cancer cells [3] (4 tested at 30-90 μg/mL, 7 at 10-30 μg/mL), the “induction of apoptosis or death of HT-29 cells” value is recorded as “did not induce neither apoptosis nor death”. Moreover, in the experiment on HT-29 colon cancer cells [4], the “accumulation of cells at the G2/M phase” value is given as “significant”. Also, the “inhibition of cell migration” value with HT-29 cells [5] (30 μg/mL (methods, Figure 5B)) is on record as “no significant effects”. Also, the “phospho-JNK level vs control” value in the experiment on p-JNK in HT-29 cells was “decreased phosphorylation”. Besides, the “expression of p-AKT protein vs control” value in the experiment with p-AKT in HT-29 cells is “significantly downregulated”.

Regarding sargachromanol R, in the experiment with HT-29 cells [6], the “IC50 growth of HT-29 cells” value was 3.4 µg/mL.

Regarding `COc1c(C)cc(O)cc1C/C=C(\C)CC(=O)/C=C(/C)CCCC(C)C(=O)/C=C/C(C)(C)O` (stereo not drawn) [Compound 5, 6-cis-amentadione-1′-methyl ether], the IC50 in [1] (setting [7]) came to 7.83 ± 0.05 µg/mL (≈ 17.1 µM); in [2] it was 41 ± 9.8 µg/mL (≈ 89.7 µM). Moreover, the “Selectivity Index (SI)” value in experiment [1] is 5.23. Also, the “necrosis (dead cells)” value with HT-29 colon cancer cells [3] is 72.75%. Besides, the “accumulation of cells at the G2/M phase” value with HT-29 colon cancer cells [4] was “significant”. Further, the inhibition at 10 µg/mL with HT-29 cells [5] was 36.2%. In the experiment with p-ERK1/2 in HT-29 cells, the “p-ERK1/2 level vs control” value was “significantly reduced”. Further, the “phospho-JNK level vs control” value in the experiment on p-JNK in HT-29 cells is reported as “decreased phosphorylation”. Moreover, the “expression of p-AKT protein vs control” value in the experiment with p-AKT in HT-29 cells is “no significant reduction”.

For the molecule zonaquinone acetate, the IC50 with HT-29 cells [6] (read-out: IC50 growth of HT-29 cells) is 17.3 µM. Also, in the experiment on HT-29 cells [6] (value in brackets, converted from μM), the “IC50 growth of HT-29 cells” value was 7.8 µg/mL.

Usually IC50 stands for the concentration that gives 50% inhibition.
